Reference: PubChem BioAssay AID252 (DTP/NCI, 2004)
Values joined by “and” are separate entries in the source; they are usually repeats but may differ in a detail not shown here. Identical values can stand only once. Toxic doses and inconclusive results are not listed. The calls were made as follows: active = survival T/C of 150% or more; inactive = T/C below 125% in these data.

System: BDF1 mice, intracerebral L1210 leukemia, survival T/C
Assay: NCI In Vivo Anticancer Drug Screen. Data for tumor model L1210 Leukemia (intracerebral) in B6D2F1 (BDF1) mice
Conditions: higher = longer survival
Outline: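 Readout is the T/C ratio: survival of compound-treated animals over that of vehicle-treated controls, in mice bearing transplantable tumour.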

[1] = endpoint: mean survival time, dose: 3.0 mg/kg/injection, schedule: Q01DX001 (ip), vehicle: carboxymethylcellulose (CMC)
[2] = endpoint: mean survival time, dose: 18.0 mg/kg/injection, schedule: Q01DX001 (ip), vehicle: carboxymethylcellulose (CMC)
[3] = endpoint: mean survival time, dose: 67.0 mg/kg/injection, schedule: Q01DX001 (ip), vehicle: carboxymethylcellulose (CMC)

Measured: T/C

C1CN1c1nc(N2CC2)nc(N2CC2)n1
inactive: endpoint: mean survival time, dose: 0.15 mg/kg/injection, schedule: Q01DX Z (ip), vehicle: saline 113 % of control | endpoint: mean survival time, dose: 0.25 mg/kg/injection, schedule: Q01DX Z (ip), vehicle: saline 119 % of control | endpoint: mean survival time, dose: 1.0 mg/kg/injection, schedule: Q01DX Z (ip), vehicle: saline 124 % of control | endpoint: mean survival time, dose: 1.5 mg/kg/injection, schedule: Q01DX Z (ip), vehicle: saline 97 % of control
active: endpoint: mean survival time, dose: 0.5 mg/kg/injection, schedule: Q01DX Z (ip), vehicle: saline 160 % of control | endpoint: mean survival time, dose: 0.75 mg/kg/injection, schedule: Q01DX Z (ip), vehicle: saline 156 % of control | endpoint: mean survival time, dose: 2.1 mg/kg/injection, schedule: Q01DX001 (ip), vehicle: saline 153 % of control | endpoint: mean survival time, dose: 3.2 mg/kg/injection, schedule: Q01DX001 (ip), vehicle: saline 182 % of control

N[C@@H](Cc1ccc(N(CCCl)CCCl)cc1)C(=O)O
active: endpoint: mean survival time, dose: 14.0 mg/kg/injection, schedule: Q01DX001 (ip), vehicle: carboxymethylcellulose (CMC) 155 % of control
inactive: endpoint: mean survival time, dose: 1.0 mg/kg/injection, schedule: Q01DX009 (ip), vehicle: saline 111 % of control | endpoint: mean survival time, dose: 1.0 mg/kg/injection, schedule: Q01DX Z (ip), vehicle: carboxymethylcellulose (CMC) 98 % of control | endpoint: mean survival time, dose: 1.13 mg/kg/injection, schedule: Q01DX001 (ip), vehicle: carboxymethylcellulose (CMC) 104 % of control and 97 % of control | endpoint: mean survival time, dose: 2.0 mg/kg/injection, schedule: Q01DX009 (ip), vehicle: saline 114 % of control | endpoint: mean survival time, dose: 2.0 mg/kg/injection, schedule: Q01DX Z (ip), vehicle: carboxymethylcellulose (CMC) 111 % of control | endpoint: mean survival time, dose: 2.25 mg/kg/injection, schedule: Q01DX001 (ip), vehicle: carboxymethylcellulose (CMC) 103 % of control and 104 % of control | [1] 103 % of control and 108 % of control | endpoint: mean survival time, dose: 4.5 mg/kg/injection, schedule: Q01DX001 (ip), vehicle: carboxymethylcellulose (CMC) 104 % of control and 110 % of control | endpoint: mean survival time, dose: 8.0 mg/kg/injection, schedule: Q01DX Z (ip), vehicle: carboxymethylcellulose (CMC) 102 % of control | endpoint: mean survival time, dose: 9.0 mg/kg/injection, schedule: Q01DX001 (ip), vehicle: carboxymethylcellulose (CMC) 119 % of control and 120 % of control | endpoint: mean survival time, dose: 12.5 mg/kg/injection, schedule: Q01DX Z (ip), vehicle: carboxymethylcellulose (CMC) 111 % of control and 88 % of control | [2] 122 % of control | endpoint: mean survival time, dose: 25.0 mg/kg/injection, schedule: Q01DX Z (ip), vehicle: carboxymethylcellulose (CMC) 88 % of control | endpoint: mean survival time, dose: 29.0 mg/kg/injection, schedule: Q01DX001 (ip), vehicle: carboxymethylcellulose (CMC) 115 % of control

O=c1cn[nH]c(=O)[nH]1
inactive: endpoint: mean survival time, dose: 440.0 mg/kg/injection, schedule: Q01DX001 (ip), vehicle: carboxymethylcellulose (CMC) 102 % of control | endpoint: mean survival time, dose: 670.0 mg/kg/injection, schedule: Q01DX001 (ip), vehicle: carboxymethylcellulose (CMC) 101 % of control | endpoint: mean survival time, dose: 1000.0 mg/kg/injection, schedule: Q01DX001 (ip), vehicle: carboxymethylcellulose (CMC) 101 % of control

O=NN(CCCl)C(=O)Nc1cc(NC(=O)N(CCCl)N=O)cc(C(=O)O)c1
inactive: endpoint: mean survival time, dose: 1.5 mg/kg/injection, schedule: Q01DX001 (ip), vehicle: carboxymethylcellulose (CMC) 108 % of control | [1] 106 % of control | endpoint: mean survival time, dose: 5.0 mg/kg/injection, schedule: Q01DX001 (ip), vehicle: carboxymethylcellulose (CMC) 104 % of control | endpoint: mean survival time, dose: 8.0 mg/kg/injection, schedule: Q01DX001 (ip), vehicle: carboxymethylcellulose (CMC) 104 % of control | endpoint: mean survival time, dose: 12.0 mg/kg/injection, schedule: Q01DX001 (ip), vehicle: carboxymethylcellulose (CMC) 102 % of control | [2] 110 % of control | endpoint: mean survival time, dose: 26.0 mg/kg/injection, schedule: Q01DX001 (ip), vehicle: carboxymethylcellulose (CMC) 106 % of control | endpoint: mean survival time, dose: 40.0 mg/kg/injection, schedule: Q01DX001 (ip), vehicle: carboxymethylcellulose (CMC) 93 % of control | endpoint: mean survival time, dose: 60.0 mg/kg/injection, schedule: Q01DX001 (ip), vehicle: carboxymethylcellulose (CMC) 87 % of control

CCCCCCCCCCCCCCCCCCCCCC(=O)Nc1ccn(C2OC(CO)C(O)C2O)c(=O)n1 (stereo not drawn)
inactive: endpoint: median survival time, dose: 400.0 mg/kg/injection, schedule: Q01DX009 (ip), vehicle: saline with Tween-80 96 % of control
active: endpoint: median survival time, dose: 25.0 mg/kg/injection, schedule: Q01DX009 (ip), vehicle: saline with Tween-80 208 % of control | endpoint: median survival time, dose: 50.0 mg/kg/injection, schedule: Q01DX009 (ip), vehicle: saline with Tween-80 162 % of control | endpoint: median survival time, dose: 100.0 mg/kg/injection, schedule: Q01DX009 (ip), vehicle: saline with Tween-80 198 % of control | endpoint: median survival time, dose: 200.0 mg/kg/injection, schedule: Q01DX009 (ip), vehicle: saline with Tween-80 250 % of control

COc1ccc(NC(=O)N(C)N=O)cc1
inactive: [3] 94 % of control | endpoint: mean survival time, dose: 100.0 mg/kg/injection, schedule: Q01DX001 (ip), vehicle: carboxymethylcellulose (CMC) 90 % of control

CC12CC3(C)CC(C)(C1)CC(NC(=O)N(CCF)N=O)(C2)C3
inactive: endpoint: mean survival time, dose: 82.0 mg/kg/injection, schedule: Q01DX001 (ip), vehicle: other 113 % of control

Cc1ccc(S(=O)(=O)NC(=O)N(CCCl)N=O)cc1
inactive: endpoint: mean survival time, dose: 31.0 mg/kg/injection, schedule: Q01DX001 (ip), vehicle: other 119 % of control | endpoint: mean survival time, dose: 62.0 mg/kg/injection, schedule: Q01DX001 (ip), vehicle: other 116 % of control | endpoint: mean survival time, dose: 140.0 mg/kg/injection, schedule: Q01DX001 (ip), vehicle: other 115 % of control

O=NN(CCF)C(=O)NC1CCCCC1
active: endpoint: mean survival time, dose: 13.5 mg/kg/injection, schedule: Q01DX001 (ip), vehicle: other 166 % of control and 214 % of control and 233 % of control | endpoint: mean survival time, dose: 13.5 mg/kg/injection, schedule: Q01DX001 (oral), vehicle: other 253 % of control and 270 % of control and 284 % of control | endpoint: mean survival time, dose: 20.0 mg/kg/injection, schedule: Q01DX001 (ip), vehicle: carboxymethylcellulose (CMC) 180 % of control | endpoint: mean survival time, dose: 27.0 mg/kg/injection, schedule: Q01DX001 (ip), vehicle: other 156 % of control and 373 % of control and 379 % of control | endpoint: mean survival time, dose: 27.0 mg/kg/injection, schedule: Q01DX001 (oral), vehicle: other 325 % of control and 352 % of control and 462 % of control | endpoint: mean survival time, dose: 30.0 mg/kg/injection, schedule: Q01DX001 (ip), vehicle: carboxymethylcellulose (CMC) 290 % of control and 322 % of control | endpoint: mean survival time, dose: 45.0 mg/kg/injection, schedule: Q01DX001 (ip), vehicle: carboxymethylcellulose (CMC) 293 % of control and 337 % of control | endpoint: mean survival time, dose: 54.0 mg/kg/injection, schedule: Q01DX001 (ip), vehicle: other 190 % of control and 322 % of control and 367 % of control | endpoint: mean survival time, dose: 54.0 mg/kg/injection, schedule: Q01DX001 (oral), vehicle: other 203 % of control and 379 % of control | [3] 275 % of control
inactive: endpoint: mean survival time, dose: 13.0 mg/kg/injection, schedule: Q01DX001 (ip), vehicle: carboxymethylcellulose (CMC) 120 % of control

CC(C)(C)C1CCC(NC(=O)N(CCCl)N=O)CC1 (stereo not drawn)
active: endpoint: mean survival time, dose: 177.0 mg/kg/injection, schedule: Q01DX001 (ip), vehicle: other 170 % of control | endpoint: mean survival time, dose: 250.0 mg/kg/injection, schedule: Q01DX001 (ip), vehicle: other 156 % of control and 158 % of control | endpoint: mean survival time, dose: 354.0 mg/kg/injection, schedule: Q01DX001 (ip), vehicle: other 247 % of control | endpoint: mean survival time, dose: 375.0 mg/kg/injection, schedule: Q01DX001 (ip), vehicle: other 196 % of control and 210 % of control | endpoint: mean survival time, dose: 472.0 mg/kg/injection, schedule: Q01DX001 (ip), vehicle: other 155 % of control | endpoint: mean survival time, dose: 500.0 mg/kg/injection, schedule: Q01DX001 (ip), vehicle: other 186 % of control and 201 % of control | endpoint: mean survival time, dose: 750.0 mg/kg/injection, schedule: Q01DX001 (ip), vehicle: other 152 % of control
inactive: endpoint: mean survival time, dose: 708.0 mg/kg/injection, schedule: Q01DX001 (ip), vehicle: other 86 % of control

CC12CC3(C)CC(C)(C1)CC(NC(=O)N(CCCl)N=O)(C2)C3
inactive: endpoint: mean survival time, dose: 45.0 mg/kg/injection, schedule: Q01DX001 (ip), vehicle: other 95 % of control | endpoint: mean survival time, dose: 60.0 mg/kg/injection, schedule: Q01DX001 (ip), vehicle: other 97 % of control | endpoint: mean survival time, dose: 90.0 mg/kg/injection, schedule: Q01DX001 (ip), vehicle: other 104 % of control | endpoint: mean survival time, dose: 125.0 mg/kg/injection, schedule: Q01DX001 (ip), vehicle: other 110 % of control | endpoint: mean survival time, dose: 187.0 mg/kg/injection, schedule: Q01DX001 (ip), vehicle: other 112 % of control

CS(=O)(=O)Nc1ccc(Nc2c3ccccc3nc3cc(Cl)ccc23)cc1
inactive: endpoint: mean survival time, dose: 10.0 mg/kg/injection, schedule: Q01DX009 (ip), vehicle: saline 99 % of control | endpoint: mean survival time, dose: 10.0 mg/kg/injection, schedule: Q01DX009 (sc), vehicle: saline 99 % of control | endpoint: mean survival time, dose: 20.0 mg/kg/injection, schedule: Q01DX009 (ip), vehicle: saline 98 % of control | endpoint: mean survival time, dose: 20.0 mg/kg/injection, schedule: Q01DX009 (sc), vehicle: saline 102 % of control | endpoint: mean survival time, dose: 40.0 mg/kg/injection, schedule: Q01DX009 (ip), vehicle: saline 106 % of control | endpoint: mean survival time, dose: 40.0 mg/kg/injection, schedule: Q01DX009 (sc), vehicle: saline 114 % of control | endpoint: mean survival time, dose: 80.0 mg/kg/injection, schedule: Q01DX009 (ip), vehicle: saline 91 % of control | endpoint: mean survival time, dose: 80.0 mg/kg/injection, schedule: Q01DX009 (sc), vehicle: saline 114 % of control
